Measured values from ChEMBL document CHEMBL3865818, “4,5-Diaryl-3H-1,2-dithiole-3-thiones and related compounds as combretastatin A-4/oltipraz hybrids: Synthesis, molecular modelling and evaluation as antiproliferative agents and inhibitors of tubulin” (Eur J Med Chem, 2016).
Activity calls are given as the source filed them. The calls are words filed in the database; no cut-off is given here.

Experiments:
[1] = Antiproliferative activity against human SGC7901 cells measured after 72 hrs by MTT assay; assay type: functional, cell-based; settings: SGC-7901, 72 h
[2] = Cell cycle arrest in human KB cells assessed as accumulation at SubG1-phase at 0.2 uM measured after 36 hrs by propidium iodide staining-based flow cytometry (reference value: 0.63%); assay type: functional
[3] = Cell cycle arrest in human KB cells assessed as accumulation at G2/M-phase at 0.2 uM measured after 48 hrs by propidium iodide staining-based flow cytometry (reference value: 23.36%); assay type: functional
[4] = Cell cycle arrest in human KB cells assessed as accumulation at S-phase measured after 36 hrs by propidium iodide staining-based flow cytometry (reference value: 16.51%); assay type: functional
[5] = Cell cycle arrest in human KB cells assessed as accumulation at S-phase measured after 60 hrs by propidium iodide staining-based flow cytometry (reference value: 12.66%); assay type: functional
[6] = Cell cycle arrest in human KB cells assessed as accumulation at G0/G1-phase at 0.05 uM measured after 12 hrs by propidium iodide staining-based flow cytometry (reference value: 48.26%); assay type: functional
[7] = Cell cycle arrest in human KB cells assessed as accumulation at G2/M-phase at 0.1 uM measured after 12 hrs by propidium iodide staining-based flow cytometry (reference value: 30.19%); assay type: functional
[8] = Cell cycle arrest in human KB cells assessed as accumulation at S-phase measured after 48 hrs by propidium iodide staining-based flow cytometry (reference value: 13.32%); assay type: functional
[9] = Cell cycle arrest in human KB cells assessed as accumulation at G2/M-phase measured after 60 hrs by propidium iodide staining-based flow cytometry (reference value: 18.9%); assay type: functional
KB = test: Inhibition of alpha-tubulin in human KB cells assessed as disruption of microtubule formation at 0.2 uM by DAPI staining-based immunofluorescence assay; assay type: cell-based
[10] = Cell cycle arrest in human KB cells assessed as accumulation at S-phase at 0.2 uM measured after 24 hrs by propidium iodide staining-based flow cytometry (reference value: 16.96%); assay type: functional
[11] = Cell cycle arrest in human KB cells assessed as accumulation at S-phase measured after 12 hrs by propidium iodide staining-based flow cytometry (reference value: 15.5%); assay type: functional
[12] = Cell cycle arrest in human KB cells assessed as accumulation at S-phase at 0.2 uM measured after 12 hrs by propidium iodide staining-based flow cytometry (reference value: 15.5%); assay type: functional
[13] = Cell cycle arrest in human KB cells assessed as accumulation at G0/G1-phase at 0.1 uM measured after 24 hrs by propidium iodide staining-based flow cytometry (reference value: 48.52%); assay type: functional
[14] = Cell cycle arrest in human KB cells assessed as accumulation at G0/G1-phase at 0.1 uM measured after 48 hrs by propidium iodide staining-based flow cytometry (reference value: 58.26%); assay type: functional
[15] = Cell cycle arrest in human KB cells assessed as accumulation at SubG1-phase at 0.1 uM measured after 36 hrs by propidium iodide staining-based flow cytometry (reference value: 0.63%); assay type: functional
[16] = Cell cycle arrest in human KB cells assessed as accumulation at SubG1-phase at 0.1 uM measured after 48 hrs by propidium iodide staining-based flow cytometry (reference value: 0.61%); assay type: functional
[17] = Cell cycle arrest in human KB cells assessed as accumulation at S-phase measured after 24 hrs by propidium iodide staining-based flow cytometry (reference value: 16.96%); assay type: functional
[18] = Cell cycle arrest in human KB cells assessed as accumulation at G0/G1-phase measured after 36 hrs by propidium iodide staining-based flow cytometry (reference value: 51.51%); assay type: functional
[19] = Cell cycle arrest in human KB cells assessed as accumulation at SubG1-phase at 0.05 uM measured after 60 hrs by propidium iodide staining-based flow cytometry (reference value: 1.24%); assay type: functional
[20] = Cell cycle arrest in human KB cells assessed as accumulation at G0/G1-phase at 0.05 uM measured after 36 hrs by propidium iodide staining-based flow cytometry (reference value: 51.51%); assay type: functional
[21] = Cell cycle arrest in human KB cells assessed as increase in subG1-peak at 0.2 uM by propidium iodide staining-based flow cytometry; assay type: functional; settings: TDE = time-dependent effect
[22] = Cell cycle arrest in human KB cells assessed as accumulation at S-phase at 0.1 uM measured after 12 hrs by propidium iodide staining-based flow cytometry (reference value: 15.5%); assay type: functional
[23] = Cell cycle arrest in human KB cells assessed as accumulation at G2/M-phase at 0.1 uM measured after 24 hrs by propidium iodide staining-based flow cytometry (reference value: 28.84%); assay type: functional
[24] = Cell cycle arrest in human KB cells assessed as accumulation at S-phase at 0.05 uM measured after 12 hrs by propidium iodide staining-based flow cytometry (reference value: 15.5%); assay type: functional
[25] = Cell cycle arrest in human KB cells assessed as accumulation at S-phase at 0.2 uM measured after 36 hrs by propidium iodide staining-based flow cytometry (reference value: 16.51%); assay type: functional
[26] = Cell cycle arrest in human KB cells assessed as accumulation at G0/G1-phase measured after 60 hrs by propidium iodide staining-based flow cytometry (reference value: 63.85%); assay type: functional
[27] = Cell cycle arrest in human KB cells assessed as accumulation at S-phase at 0.2 uM measured after 48 hrs by propidium iodide staining-based flow cytometry (reference value: 13.32%); assay type: functional
[28] = Cell cycle arrest in human KB cells assessed as accumulation at S-phase at 0.1 uM measured after 48 hrs by propidium iodide staining-based flow cytometry (reference value: 13.32%); assay type: functional
[29] = Cell cycle arrest in human KB cells assessed as accumulation at G2/M-phase at 0.2 uM measured after 12 hrs by propidium iodide staining-based flow cytometry (reference value: 30.19%); assay type: functional
[30] = Cell cycle arrest in human KB cells assessed as accumulation at G2/M-phase at 0.2 uM measured after 24 hrs by propidium iodide staining-based flow cytometry (reference value: 28.84%); assay type: functional
[31] = Cell cycle arrest in human KB cells assessed as accumulation at G0/G1-phase measured after 12 hrs by propidium iodide staining-based flow cytometry (reference value: 48.26%); assay type: functional
[32] = Cell cycle arrest in human KB cells assessed as accumulation at G0/G1-phase at 0.1 uM measured after 36 hrs by propidium iodide staining-based flow cytometry (reference value: 51.51%); assay type: functional
[33] = Cell cycle arrest in human KB cells assessed as accumulation at G0/G1-phase at 0.05 uM measured after 24 hrs by propidium iodide staining-based flow cytometry (reference value: 48.52%); assay type: functional
[34] = Cell cycle arrest in human KB cells assessed as accumulation at G2/M-phase measured after 24 hrs by propidium iodide staining-based flow cytometry (reference value: 28.84%); assay type: functional
[35] = Cell cycle arrest in human KB cells assessed as accumulation at SubG1-phase at 0.1 uM measured after 60 hrs by propidium iodide staining-based flow cytometry (reference value: 1.24%); assay type: functional
[36] = Cell cycle arrest in human KB cells assessed as accumulation at S-phase at 0.2 uM measured after 60 hrs by propidium iodide staining-based flow cytometry (reference value: 12.66%); assay type: functional

**Q.** What does the source list for `COc1ccc(-c2ssc(=O)c2-c2cc(OC)c(OC)c(OC)c2)cc1N`?
**A.** IC50 [1]: 172 nM; Activity [2]: 33.2%; Activity [3]: 19.4%; Activity [4]: 25.4%; Activity [5]: 6.78%; Activity [6]: 43%; Activity [7]: 62.8%; Activity [8]: 12.6%; Activity [9]: 15.6%; Activity (KB): Active; Activity [10]: 22.2%; Activity [11]: 21.5%; Activity [12]: 22.8%; Activity [13]: 13.1%; Activity [14]: 15.5%; Activity [15]: 24.3%; Activity [16]: 33.6%; Activity [17]: 26.9%; Activity [18]: 14.4%; Activity [19]: 34.4%; Activity [20]: 50.3%; Activity [21]: Tde; Activity [22]: 21.6%; Activity [23]: 41.8%; Activity [24]: 16.4%; Activity [25]: 15.9%; Activity [26]: 6.81%; Activity [27]: 13.1%; Activity [28]: 15.3%; Activity [29]: 70.2%; Activity [30]: 55.8%; Activity [31]: 8.18%; Activity [32]: 25.5%; Activity [33]: 36.7%; Activity [34]: 52.1%; Activity [35]: 57.8%; Activity [36]: 6.33%
